Source: patent publication US20060069132A1, “Azolecarboxamide herbicides” (priority 2004, published 2006)

Assays:
eastern black nightshade = test: Test C pre-/postemergence herbicide test; assay type: in vivo, Solanum ptycanthum; conditions: preemergence
In short: (§1)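 Greenhouse-grown plants were evaluated visually 12 to 14 days after treatment, with 100 meaning complete control and 0 no effect. Application was preemergence, or postemergence at 2 to 18 cm.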

common ragweed = test: Test C pre-/postemergence herbicide test; assay type: in vivo, Ambrosia elatior; set-up: key to Plant response rating, Ragweed: 0 = no effect, 100 = complete control; conditions: preemergence
In short: as §1

Surinam grass = test: Test C pre-/postemergence herbicide test; assay type: in vivo, Urochloa decumbens; conditions: preemergence
In short: as §1

ducksalad = test: Test C flooded paddy test; assay type: in vivo, Heteranthera limosa; conditions: for Plant response rating, Ducksalad: 500 g ai/ha, visual rating after 12 to 14 days
rice [1] = test: Test C flooded paddy test; assay type: in vivo, Oryza sativa; conditions: for Plant response rating, Rice: 500 g ai/ha, visual rating after 12 to 14 days
In short: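 Injury scored visually against controls on a 0 (no effect) to 100 (complete control) scale, 12 to 14 days after treatment in greenhouse. Flooded paddy plants treated at 2-leaf stage; postemergence plants at 1- to 4-leaf stage, 2 to 18 cm tall.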

rice [2] = test: Test B pre-/postemergence herbicide test; assay type: in vivo, Oryza sativa; conditions: 0 = no effect, 100 = complete control, preemergence; for Rice plant response rating (0 to 100 scale): 125 g ai/ha; for Plant response rating, Rice: 500 g ai/ha, visual rating
In short: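 Evaluation is visual, comparing treated with control plants on a scale where 0 means no effect and 100 means full control. Treatments were preemergence, or postemergence on seedlings 2–18 cm tall, and held 13–15 days in the greenhouse.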

large crabgrass = test: Test C pre-/postemergence herbicide test; assay type: in vivo, Digitaria sanguinalis; conditions: preemergence
In short: as §1

pigweed = test: Test C pre-/postemergence herbicide test; assay type: in vivo, Amaranthus retroflexus; conditions: preemergence
In short: as §1

[3] = 125 g ai/ha, scale 0 (no effect) to 100 (complete control), visual, 12 to 14 days
[4] = 500 g ai/ha, scale 0 to 100 (0 no effect, 100 complete control), visual, 12 to 14 days
[5] = 125 g ai/ha, scale 0 to 100 (0 no effect, 100 complete control)
[6] = 250 g ai/ha, scale of 0 to 100, 0 is no effect, 100 is complete control
[7] = scale 0 to 100 (0 no effect, 100 complete control)

| Compound | Plant response rating, Nightshade (eastern black nightshade; 62 g ai/ha, scale 0 to 100) | Plant response rating, Nightshade (eastern black nightshade; [3]) | Plant response rating, Nightshade (eastern black nightshade; 250 g ai/ha, scale 0-100) | Plant response rating, Nightshade (eastern black nightshade; [4]) | Plant response rating, Ragweed (common ragweed; 62 g ai/ha, scale 0 to 100) | Plant response rating, Ragweed (common ragweed; [4]) | Plant response rating, Surinam Grass (Surinam grass; 250 g ai/ha, scale 0-100) | Plant response rating, Surinam Grass (Surinam grass; [4]) | Ducksalad plant response rating (ducksalad; 62 g ai/ha, scale 0 to 100) | Ducksalad plant response rating (ducksalad; [5]) | Ducksalad plant response rating (ducksalad; [6]) | Plant response rating, Ducksalad (ducksalad; [7]) | Rice plant response rating (rice [1]; 62 g ai/ha, scale 0 to 100) | Rice plant response rating (rice [1]; [5]) | Rice plant response rating (rice [1]; [6]) | Plant response rating, Rice (rice [1]; [7]) | Rice plant response rating (0 to 100 scale) (rice [2]) | Plant response rating, Rice (rice [2]) | Plant response rating, Crabgrass, Large (large crabgrass; 62 g ai/ha, scale 0 to 100) | Plant response rating, Crabgrass, Large (large crabgrass; [3]) | further results |
| --- | --- | --- | --- | --- | --- | --- | --- | --- | --- | --- | --- | --- | --- | --- | --- | --- | --- | --- | --- | --- | --- |
| CCn1nc(C(C)(C)C)cc1C(=O)Nc1cc(C(=S)N(C)C)ccc1F [Compound 294] | 100 | 100 | 100 | 100 | 100 | 100 | 100 | 100 | 90 | 95 | 95 | 95 | 70 | 75 | 85 | 90 | 90 | 100 | 70 | 95 | Plant response rating, Ragweed (common ragweed; 250 g ai/ha, scale 0-100): 100; Plant response rating, Surinam Grass (Surinam grass; 62 g ai/ha, scale 0 to 100): 85; Plant response rating, Crabgrass, Large (large crabgrass; 250 g ai/ha, scale 0-100): 100; Plant response rating, Crabgrass, Large (large crabgrass; [4]): 100; Plant response rating, Pigweed (pigweed; 62 g ai/ha, scale 0 to 100): 100; Plant response rating, Pigweed (pigweed; [3]): 100; Plant response rating, Pigweed (pigweed; 250 g ai/ha, scale 0-100): 100; Plant response rating, Pigweed (pigweed; [4]): 100 |
| CCn1nc(C2(C)CC2)cc1C(=O)Nc1cc(C(=O)N(C)C)ccc1F [Compound 299] | 100 | 100 | 100 | 100 | 100 | 100 | 100 | 100 | 95 | 95 | 95 | 95 | 70 | 80 | 80 | 85 | 80 | 90 | 100 | 100 | Plant response rating, Ragweed (common ragweed; 250 g ai/ha, scale 0-100): 100; Plant response rating, Surinam Grass (Surinam grass; 62 g ai/ha, scale 0 to 100): 75; Plant response rating, Crabgrass, Large (large crabgrass; 250 g ai/ha, scale 0-100): 100; Plant response rating, Crabgrass, Large (large crabgrass; [4]): 100; Plant response rating, Pigweed (pigweed; 62 g ai/ha, scale 0 to 100): 100; Plant response rating, Pigweed (pigweed; [3]): 100; Plant response rating, Pigweed (pigweed; 250 g ai/ha, scale 0-100): 100; Plant response rating, Pigweed (pigweed; [4]): 100 |
| CCn1nc(C(C)(C)C)cc1C(=S)Nc1cc(C(=S)N(C)C)ccc1F [Compound 305] | 60 | 90 | 100 | 100 | 10 | 100 | 60 | 60 | 0 | 0 | 0 | 0 | 75 | 80 | 85 | 85 | 70 | 80 | 70 | 100 | Plant response rating, Ragweed (common ragweed; 250 g ai/ha, scale 0-100): 85; Plant response rating, Surinam Grass (Surinam grass; 62 g ai/ha, scale 0 to 100): 50; Plant response rating, Crabgrass, Large (large crabgrass; 250 g ai/ha, scale 0-100): 100; Plant response rating, Crabgrass, Large (large crabgrass; [4]): 100; Plant response rating, Pigweed (pigweed; 62 g ai/ha, scale 0 to 100): 100; Plant response rating, Pigweed (pigweed; [3]): 100; Plant response rating, Pigweed (pigweed; 250 g ai/ha, scale 0-100): 100; Plant response rating, Pigweed (pigweed; [4]): 100 |
| CCNC(=O)c1cccc(NC(=O)c2cc(C3(C)CC3)nn2CC)c1 [Compound 306] | 90 | 95 | 100 | 100 | 0 | 100 | 40 | 95 | 50 | 80 | 80 | 90 | 30 | 40 | 55 | 70 | 60 | 80 | 100 | 100 | Plant response rating, Crabgrass, Large (large crabgrass; 250 g ai/ha, scale 0-100): 100; Plant response rating, Crabgrass, Large (large crabgrass; [4]): 100; Plant response rating, Pigweed (pigweed; 62 g ai/ha, scale 0 to 100): 100; Plant response rating, Pigweed (pigweed; [3]): 100; Plant response rating, Pigweed (pigweed; 250 g ai/ha, scale 0-100): 100; Plant response rating, Pigweed (pigweed; [4]): 100 |
